Experimental data: patent US20230285260A1, “USE OF SACCHARIDES FOR CRYOPROTECTION AND RELATED TECHNOLOGY” (Zeltiq Aesthetics, Inc., priority 2017, published 2023)

Tested on: subject's skin
Assay: pre-cooling skin treatment followed by cooling (freeze) treatment at subject's flank, compared to a control site
Type: in vivo, human
Settings: general statement of the inventors' finding
Procedure: A mixture of trehalose, water, and […] (PG) was tested as a pre-cooling skin treatment. The mixture was formed by combining 100 grams of trehalose, 100 mL of water, and 40 mL of PG. The trehalose was expected to provide cryoprotection, while the water and PG were expected to act as penetration-enhancing excipients. A first site at a subject's right flank was given the pre-cooling skin treatment, while an opposite second site at the subject's left flank was designated as a control. The pre-cooling treatment at the first site included placing a small piece of rayon fabric soaked in […] of the mixture directly onto the subject's skin and waiting for 12 minutes. It was expected that passive diffusion of trehalose into the subject's skin occurred to some extent during this period. Next, an ultrasound cavitation device (40 kHz) was moved top-to-bottom and bottom-to-top over the subject's skin at the first site for 3 minutes. During this period, 5 mL of the mixture was poured over the subject's skin at the first site.
After the pre-cooling skin treatment at the first site, an applicator having a rectangular plate-type heat-transfer surface with an area of 1.7 square inches was used to execute a cooling treatment at the first and second sites. […]

**Q.** Which “reducing cryoinjury to skin cells” value does the source give for `OC[C@H]1O[C@H](O[C@H]2O[C@H](CO)[C@@H](O)[C@H](O)[C@H]2O)[C@H](O)[C@@H](O)[C@@H]1O` [trehalose] here?
**A.** effective
